Reference: ChEMBL document CHEMBL1157177, “Trivalent, Gal/GalNAc-containing ligands designed for the asialoglycoprotein receptor” (Bioorg Med Chem, 2008)

Assay: Displacement of [125I]asialoorosomucoid from ASGP receptor

Row | Ki | SMILES
1 | 2 nM | CC(=O)N[C@H]1[C@H](OCCOCCOCCNC(=O)CCOCC(COCCC(=O)NCCOCCOCCO[C@@H]2O[C@H](CO)[C@H](O)[C@H](O)[C@H]2NC(C)=O)(COCCC(=O)NCCOCCOCCO[C@@H]2O[C@H](CO)[C@H](O)[C@H](O)[C@H]2NC(C)=O)NC(=O)CN)O[C@H](CO)[C@H](O)[C@@H]1O
2 | 93 nM | O=C(CCCCO[C@@H]1O[C@H](CO)[C@H](O)[C@H](O)[C@H]1O)NCCCNC(=O)CCOCC(COCCC(=O)NCCCNC(=O)CCCCO[C@@H]1O[C@H](CO)[C@H](O)[C@H](O)[C@H]1O)(COCCC(=O)NCCCNC(=O)CCCCO[C@@H]1O[C@H](CO)[C@H](O)[C@H](O)[C@H]1O)NC(=O)CNC(=O)OCc1ccccc1
3 | 200 nM | COC(=O)CCCCC(=O)NCC(=O)NC(COCOCCOCCOCCOCCO[C@@H]1O[C@H](CO)[C@H](O)[C@H](O)[C@H]1O)(COCOCCOCCOCCOCCO[C@@H]1O[C@H](CO)[C@H](O)[C@H](O)[C@H]1O)COCOCCOCCOCCOCCO[C@@H]1O[C@H](CO)[C@H](O)[C@H](O)[C@H]1O
